Values after ≈ are worked out from the molar mass of the structure shown. Active and inactive are the calls of the source. The calls are words filed in the database; no cut-off is given here.

Data set [1] concerns the target Serine/threonine-protein kinase mTOR (Homo sapiens) (UniProt P42345). Put plainly: Inhibition of mTOR in human HCT116 cells assessed as decrease in p70S6K phosphorylation at Thr389 residue at 50 nM treated for 1 hr prior to UV-irradiation exposure and measured after 1 hr by immunoblot analysis. The format is cell-based. The following applies: HCT-116, time 2.0 hrs. Background: Immunoblotting shows a protein as a band on a membrane.

Data set [2] has as its system HCT-116. Description: Growth inhibition of human HCT116 cells measured after 72 hrs by Celltiter-Glo assay. It is filed as functional.
In a further data set the test system is HeLa. Put plainly: Growth inhibition of human HeLa cells measured after 72 hrs by Celltiter-Glo assay. It is filed as functional. (In ATP-based viability assays light output follows the ATP content of the culture.)
For data set [3], the target named is Serine/threonine-protein kinase ATR (Homo sapiens) (UniProt Q13535). Description: Inhibition of ATR in human HCT116 cells assessed as decrease in Chk1 phosphorylation at Ser317 residue at 250 nM treated for 1 hr prior to UV-irradiation exposure and measured after 1 hr by Immunoblot analysis. The format is cell-based. The following applies: HCT-116, time 2.0 hrs.

Data set [4] has the same target. Description: Inhibition of ATR in human HCT116 cells assessed as decrease in Chk1 phosphorylation at Ser317 residue by measuring decrease in foci formation at 50 nM treated for 1 hr prior to UV-irradiation exposure and measured after 1 hr by Immunofluorescence analysis. It is filed as cell-based. The following applies: HCT-116, time 2.0 hrs.
Data set [5] deals with HCT-116. Description: Inhibition of ATR/mTOR in human HCT116 cells harboring ATM+/-p53+/+ gene allele assessed as premature chromatin condensation at 50 nM treated for 1 hr prior to UV-irradiation exposure and measured after 1 hr by DAPI staining based confocal microscopic method. It is filed as cell-based. The following applies: time 2.0 hrs.
A short description of data set [6]: Half life in human liver microsome. The format is ADME. The following applies: liver microsomes.
Data set [7] is described as follows: Aqueous solubility of the compound. The format is physicochemical.
A short description of data set [8]: Aqueous solubility of the compound relative to Torin2. The format is physicochemical. The following applies: buffer.
The nature of data set [9]: Stability in human liver microsomes assessed as proportion of drug metabolized measured after 30 mins. The format is ADME, Microsome. The following applies: read-out: Drug metabolism.
Data set [10] concerns the target T1, Serine-protein kinase ATM (Homo sapiens, UniProt Q13315). Put plainly: Inhibition of ATM in human HCT116 cells assessed as decrease in Chk2 phosphorylation at Thr68 residue by measuring decrease in foci formation at 50 nM treated for 1 hr prior to UV-irradiation exposure and measured after 1 hr by immunofluorescence assay. It is filed as cell-based. The following applies: hct-116, 2 h, 0.05 µM.

For data set [11], the target named is T1, Serine-protein kinase ATM. Put plainly: Inhibition of ATM in human HCT116 cells assessed as decrease in gammaH2AX phosphorylation at Ser139 residue by measuring decrease in foci formation at 50 nM treated for 1 hr prior to UV-irradiation exposure and measured after 1 hr by immunofluorescence assay. The format is cell-based. The following applies: hct-116, 2 h, 0.05 µM.

Data set [12] can be described thus: Stability in rat liver microsomes assessed as proportion of drug metabolized measured after 30 mins. It is filed as ADME, Microsome. The following applies: read-out: Drug metabolism.
Data set [13] is described as follows: Half life in rat liver microsome. The format is ADME. The following applies: liver microsomes.
The nature of data set [14]: Intrinsic clearance in rat liver microsome. It is filed as ADME. The following applies: liver microsomes, read-out: CLH. (In general: Microsomes from liver hold many membrane-bound enzymes, among them those of drug oxidation.)
A short description of data set [15]: Intrinsic clearance in mouse liver microsome. It is filed as ADME. The following applies: liver microsomes, read-out: CLH.
The nature of data set [16]: Intrinsic clearance in human liver microsome. The format is ADME. The following applies: liver microsomes, read-out: CLH.
Data set [17] in a line: Stability in mouse liver microsomes assessed as proportion of drug metabolized measured after 30 mins. The following applies: read-out: Drug metabolism. It is filed as ADME, Microsome.
Data set [18] can be described thus: Half life in mouse liver microsome. The following applies: liver microsomes. The format is ADME.
For data set [19], the target named is Serine/threonine-protein kinase mTOR (Homo sapiens) (UniProt P42345). Put plainly: Inhibition of mTOR in human HCT116 cells assessed as decrease in p70S6K phosphorylation at Thr389 residue at 250 nM treated for 1 hr prior to UV-irradiation exposure and measured after 1 hr by immunoblot analysis. The format is cell-based. The following applies: HCT-116, time 2.0 hrs.

Sequence of Serine/threonine-protein kinase ATR (Homo sapiens) (Q13535 whole entry, looked up): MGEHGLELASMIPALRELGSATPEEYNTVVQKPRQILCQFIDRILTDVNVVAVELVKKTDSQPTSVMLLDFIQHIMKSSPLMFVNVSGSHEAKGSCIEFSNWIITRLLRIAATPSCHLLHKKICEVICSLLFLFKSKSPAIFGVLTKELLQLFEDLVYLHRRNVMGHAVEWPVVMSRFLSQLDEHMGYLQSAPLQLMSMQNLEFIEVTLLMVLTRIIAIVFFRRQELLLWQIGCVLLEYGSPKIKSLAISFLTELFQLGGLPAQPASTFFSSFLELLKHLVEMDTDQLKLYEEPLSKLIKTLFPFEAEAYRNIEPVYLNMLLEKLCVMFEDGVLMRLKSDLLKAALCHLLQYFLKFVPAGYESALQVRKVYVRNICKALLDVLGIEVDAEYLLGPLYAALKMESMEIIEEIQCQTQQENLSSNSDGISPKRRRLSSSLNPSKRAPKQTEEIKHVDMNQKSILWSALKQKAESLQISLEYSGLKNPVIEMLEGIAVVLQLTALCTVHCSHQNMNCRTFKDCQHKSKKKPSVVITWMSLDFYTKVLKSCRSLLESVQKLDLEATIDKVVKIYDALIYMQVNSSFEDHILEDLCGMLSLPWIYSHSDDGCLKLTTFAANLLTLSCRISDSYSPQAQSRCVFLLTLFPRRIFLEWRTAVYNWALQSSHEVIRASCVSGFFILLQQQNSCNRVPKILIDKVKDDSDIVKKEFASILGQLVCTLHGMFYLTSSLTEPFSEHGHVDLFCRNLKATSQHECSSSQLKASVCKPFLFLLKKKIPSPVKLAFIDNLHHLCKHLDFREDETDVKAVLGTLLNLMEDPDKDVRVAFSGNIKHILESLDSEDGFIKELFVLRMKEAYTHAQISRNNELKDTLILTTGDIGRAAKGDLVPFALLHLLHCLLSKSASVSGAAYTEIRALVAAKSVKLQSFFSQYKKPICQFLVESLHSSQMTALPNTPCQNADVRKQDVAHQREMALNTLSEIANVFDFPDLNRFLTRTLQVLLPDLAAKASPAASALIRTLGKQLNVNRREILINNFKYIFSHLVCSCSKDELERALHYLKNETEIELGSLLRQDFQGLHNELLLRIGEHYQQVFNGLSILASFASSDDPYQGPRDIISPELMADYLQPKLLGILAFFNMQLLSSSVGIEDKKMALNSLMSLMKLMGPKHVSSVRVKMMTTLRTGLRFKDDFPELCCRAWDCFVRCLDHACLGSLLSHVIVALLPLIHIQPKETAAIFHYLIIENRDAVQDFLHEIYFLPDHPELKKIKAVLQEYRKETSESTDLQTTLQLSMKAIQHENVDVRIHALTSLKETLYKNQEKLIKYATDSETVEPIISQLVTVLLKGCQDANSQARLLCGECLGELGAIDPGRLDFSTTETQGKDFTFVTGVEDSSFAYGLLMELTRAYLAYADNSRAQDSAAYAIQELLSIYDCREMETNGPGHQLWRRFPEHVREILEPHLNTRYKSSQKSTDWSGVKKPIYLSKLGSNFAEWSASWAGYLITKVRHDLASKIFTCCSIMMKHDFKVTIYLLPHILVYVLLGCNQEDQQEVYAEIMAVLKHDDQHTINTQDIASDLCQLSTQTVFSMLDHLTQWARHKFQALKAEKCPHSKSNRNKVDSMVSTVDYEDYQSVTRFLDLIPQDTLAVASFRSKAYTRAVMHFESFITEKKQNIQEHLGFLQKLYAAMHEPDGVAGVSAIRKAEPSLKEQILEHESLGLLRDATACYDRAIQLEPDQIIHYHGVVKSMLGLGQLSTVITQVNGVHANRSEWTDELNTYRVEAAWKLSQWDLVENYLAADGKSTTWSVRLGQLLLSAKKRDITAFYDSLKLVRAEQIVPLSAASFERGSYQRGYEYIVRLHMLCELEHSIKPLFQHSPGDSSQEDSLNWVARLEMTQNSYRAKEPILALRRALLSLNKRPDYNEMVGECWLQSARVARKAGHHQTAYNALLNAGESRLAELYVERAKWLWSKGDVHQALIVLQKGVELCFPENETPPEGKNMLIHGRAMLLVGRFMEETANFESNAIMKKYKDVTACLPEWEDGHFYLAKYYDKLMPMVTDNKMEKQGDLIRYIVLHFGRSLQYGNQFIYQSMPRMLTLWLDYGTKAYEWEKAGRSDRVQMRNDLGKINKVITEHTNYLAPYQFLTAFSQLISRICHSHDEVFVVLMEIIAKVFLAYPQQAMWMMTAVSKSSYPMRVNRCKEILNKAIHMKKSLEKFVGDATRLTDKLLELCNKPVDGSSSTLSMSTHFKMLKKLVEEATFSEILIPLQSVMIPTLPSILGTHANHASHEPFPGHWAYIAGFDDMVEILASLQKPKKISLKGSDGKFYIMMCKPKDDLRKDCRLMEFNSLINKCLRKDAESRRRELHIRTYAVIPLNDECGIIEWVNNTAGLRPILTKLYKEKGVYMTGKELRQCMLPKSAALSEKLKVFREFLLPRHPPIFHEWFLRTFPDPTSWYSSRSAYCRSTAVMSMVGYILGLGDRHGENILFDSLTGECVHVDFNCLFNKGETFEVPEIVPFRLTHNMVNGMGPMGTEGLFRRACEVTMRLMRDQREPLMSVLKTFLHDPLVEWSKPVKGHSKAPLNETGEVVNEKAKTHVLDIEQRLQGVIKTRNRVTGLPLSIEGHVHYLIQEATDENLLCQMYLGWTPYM

As to `O=c1ccc2cnc3ccc(-c4ccc(N5CCOCC5)nc4)cc3c2n1-c1cccc(C(F)(F)F)c1`, the inhibition entry in data set [1] and in [3] was “Active” throughout. The GI50 with HCT-116 [2] came out at 800 nM; in the data set with HeLa it was 330 nM.
Consider `Nc1ccc(-c2ccc3ncc4ccc(=O)n(-c5cccc(C(F)(F)F)c5)c4c3c2)cn1`, for which the inhibition result (in data set [4]; with HCT-116 [5]) was “Active” throughout. For the same molecule, the results for the GI50 in the data set with HCT-116 [2] and in the data set on HeLa were 32.2 nM and 98 nM, respectively.
For `O=c1ccc2cnc3ccc(-c4ccc(N5CCNCC5)nc4)cc3c2n1-c1cccc(C(F)(F)F)c1`, the figures for the half-life in data set [6], in data set [13] and in [18] were 31 min, 42 min and 157 min, respectively. Moreover, the inhibition result (in [1]; in data set [4]; with HCT-116 [5]) was “Active” each time. For the same molecule, in data set [7], the solubility was 22 µM (≈ 11 µg/mL). Besides, the “fold change (FC)” value in data set [8] came to 10. Besides, the metabolised at 0.5 h in data set [9] stood at 55%; in [12] it was 41%; in [17], 11%. The “inhibition (INH)” value in data set [10] and in [11] was “Not Active” in each case. Further, the GI50 came out at 56 nM in the data set with HCT-116 [2] and 50.4 nM in the data set with HeLa. Also, the microsomal CLint in data set [14] is 33 µL/min/mg; in data set [15] it was 9 µL/min/mg; in [16], 44 µL/min/mg. The inhibition in [3] came to 100%.
As for `CS(=O)(=O)Nc1ccc(-c2ccc3ncc4ccc(=O)n(-c5cccc(C(F)(F)F)c5)c4c3c2)cn1`, the inhibition result in data set [1] and in data set [3] was “Active” in each case. The same molecule gave a GI50 in the data set with HCT-116 [2] of 1420 nM.
Take `Nc1cnc(-c2ccc3ncc4ccc(=O)n(-c5cccc(C(F)(F)F)c5)c4c3c2)cn1`: the inhibition entry in data set [1], in data set [19] and in data set [3] was “Active” in each case. For the same molecule, the inhibition entry in data set [4] was “inactive”. Also, the “inhibition (INH)” value in data set [11] was “Not Active”. Also, the GI50 was 135 nM with HCT-116 [2] and 121 nM with HeLa.

For orientation: inhibition means how much of the control response was suppressed. Broadly, the GI50 is the concentration at which growth is held to half of that of the control. Lower therefore signals greater sensitivity of the cells. For orientation: half-life means the time in which the quantity being followed falls by half. A high value points to slow decline. As a reminder, the solubility is the dissolved amount per volume that the medium holds. Low values mean a poorly soluble substance, high ones a readily soluble substance.

(Values after ChEMBL document CHEMBL4665804, “Characterization of SPK 98, a Torin2 analog, as ATR and mTOR dual kinase inhibitor” (Bioorg Med Chem Lett, 2020).)
